From BindingDB's records for doi:10.1021/bi00421a012 (Pennsylvania State University, 1988)
pKd: −log10 of the molar value.

Target: T1, Carbamoyl-phosphate synthase small chain (Escherichia coli (strain K12), UniProt P0A6F1)
T1 sequence (P0A6F1 whole entry): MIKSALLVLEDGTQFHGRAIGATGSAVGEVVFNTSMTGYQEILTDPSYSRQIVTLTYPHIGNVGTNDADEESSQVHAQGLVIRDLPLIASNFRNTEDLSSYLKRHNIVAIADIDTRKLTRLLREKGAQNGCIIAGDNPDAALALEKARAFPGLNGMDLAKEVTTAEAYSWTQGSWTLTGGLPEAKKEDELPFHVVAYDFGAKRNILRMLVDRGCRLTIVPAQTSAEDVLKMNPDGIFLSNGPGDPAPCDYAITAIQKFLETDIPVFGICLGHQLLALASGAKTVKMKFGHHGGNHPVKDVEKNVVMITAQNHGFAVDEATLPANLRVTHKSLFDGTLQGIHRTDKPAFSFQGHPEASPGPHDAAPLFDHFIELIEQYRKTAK
Details: pH 7.5; 25 °C

O=P(O)(O)OC[C@H]1O[C@@H](n2cnc3c2ncn2ccnc32)[C@H](O)[C@@H]1O [[(2R,3S,4R,5R)-3,4-dihydroxy-5-imidazo[2,1-f]purin-3-yloxolan-2-yl]methyl dihydrogen phosphate]
pKd: 4.48
